Source: ChEMBL document CHEMBL4813957, “Antitubercular properties of thiazolidin-4-ones - A review” (Eur J Med Chem, 2021)
In brackets after ≈: the same amount, converted by molar mass.

Assays:
[1] = test system: Mycobacterium tuberculosis; assay: Antimycobacterial activity against Mycobacterium tuberculosis H37Rv assessed as growth inhibition at 12.5 ug/ml by BACTEC radiometric method relative to control; format: functional; details: read-out: GI
[2] = test system: Mycobacterium tuberculosis; assay: Antimycobacterial activity against Mycobacterium tuberculosis H37Rv assessed as growth inhibition at 6.25 ug/ml by BACTEC radiometric method relative to control; format: functional; details: read-out: GI
[3] = test system: Mycobacterium tuberculosis; assay: Antimycobacterial activity against Mycobacterium tuberculosis by microplate alamar blue assay; format: functional
[4] = test system: Mycobacterium tuberculosis; assay: Antimycobacterial activity against Mycobacterium tuberculosis; format: functional
[5] = test system: Mycobacterium tuberculosis; assay: Antimycobacterial activity against Mycobacterium tuberculosis H37Rv assessed as bacterial growth inhibition at 6.25 ug/ml by BACTEC MGIT method relative to control; format: functional
[6] = test system: Mycobacterium tuberculosis; assay: Antimycobacterial activity against Mycobacterium tuberculosis H37Rv incubated for 7 days by resazurin dye based assay; format: functional; details: 168 h, time 7 day
[7] = Inhibition of Mycobacterium tuberculosis Pantothenate Synthetase expressed in Escherichia coli BL21(DE3) cells using beta-alanine as substrate
[8] = test system: Mycobacterium tuberculosis; assay: Antimycobacterial activity against Mycobacterium tuberculosis H37Rv incubated for 7 days by microplate alamar blue assay; format: functional; details: 168 h, time 7 day
[9] = test system: Mycobacterium tuberculosis; assay: Antimycobacterial activity against Mycobacterium tuberculosis H37Rv ATCC 27294; format: functional
[10] = test system: Mycobacterium tuberculosis; assay: Antimycobacterial activity against Mycobacterium tuberculosis H37Rv assessed as growth inhibition at 16 ug/ml measured after 12 to 28 days by Lowenstein-Jensen agar method relative to control; format: functional; details: time 12-28 day, read-out: GI
[11] = test system: Mycobacterium tuberculosis; assay: Antimycobacterial activity against Mycobacterium tuberculosis H37Rv incubated for 4 weeks; format: functional; details: 672 h
[12] = Selectivity ratio of CC50 for African green monkey Vero E6 cells to IC90 for Mycobacterium tuberculosis H37Rv 27294; format: toxicity, Vero C1008
[13] = Cytotoxicity against African green monkey Vero cells after 72 hrs by cell titer glo luminescent cell viability assay; format: cell-based; details: chlorocebus sabaeus
[14] = test system: Mycobacterium tuberculosis; assay: Antimycobacterial activity against Mycobacterium tuberculosis H37Rv 27294 by microplate alamar blue assay; format: functional
[15] = biological target: T1, Enoyl-[acyl-carrier-protein] reductase [NADH] (Mycobacterium tuberculosis, UniProt P9WGR1); assay: Inhibition of Mycobacterium tuberculosis InhA
T1 sequence (P9WGR1 whole entry): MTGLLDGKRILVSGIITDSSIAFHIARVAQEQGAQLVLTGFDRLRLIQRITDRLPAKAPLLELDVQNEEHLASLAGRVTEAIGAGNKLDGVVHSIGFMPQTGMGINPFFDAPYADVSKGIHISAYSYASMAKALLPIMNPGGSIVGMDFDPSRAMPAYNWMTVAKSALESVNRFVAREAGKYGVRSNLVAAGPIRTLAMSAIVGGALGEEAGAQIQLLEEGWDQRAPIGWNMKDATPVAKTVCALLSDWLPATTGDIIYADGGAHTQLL

[16] = test system: Mycobacterium tuberculosis; assay: Antimycobacterial activity against Mycobacterium tuberculosis ATCC 27286 assessed as zone of inhibition at 20 ug/ml; format: functional; details: read-out: IZ
[17] = test system: Mycobacterium tuberculosis; assay: Antimycobacterial activity against Mycobacterium tuberculosis H37Rv ATCC 27294 assessed as growth inhibition at 12.5 ug/ml by microplate alamar blue assay relative to control; format: functional; details: read-out: GI
[18] = test system: Mycobacterium tuberculosis; assay: Antimycobacterial activity against Mycobacterium tuberculosis Erdman measured up to 2 weeks; format: functional; details: 336 h, time weeks <=2
[19] = test system: Mycobacterium tuberculosis; assay: Antimycobacterial activity against Mycobacterium tuberculosis H37Rv measured after 11 to 12 days; format: functional; details: time 11-12 day
[20] = test system: Mycobacterium tuberculosis; assay: Antimycobacterial activity against Mycobacterium tuberculosis HN878 measured up to 2 weeks; format: functional; details: HN878, 336 h, time weeks <=2
[21] = test system: Mycobacterium tuberculosis; assay: Antimycobacterial activity against Mycobacterium tuberculosis measured up to 2 weeks; format: functional; details: 336 h, time weeks <=2
[22] = test system: Mycobacterium tuberculosis; assay: Antimycobacterial activity against Mycobacterium tuberculosis H37Rv ATCC 27294 by BACTEC radiometric method; format: functional
[23] = test system: Mycobacterium tuberculosis; assay: Antimycobacterial activity against Mycobacterium tuberculosis H37Rv assessed as growth inhibition at 50 ug/ml by Lowenstein-Jensen method relative to control; format: functional; details: read-out: GI
[24] = test system: Mycobacterium tuberculosis; assay: Antimycobacterial activity against Mycobacterium tuberculosis H37Ra ATCC 25177 assessed as inhibition of bacteria at 30 ug/ml by XTT reduction menadione assay relative to control; format: functional
[25] = test system: Mycobacterium tuberculosis; assay: Antimycobacterial activity against Mycobacterium tuberculosis H37Rv assessed as inhibition of bacteria at 12.5 ug/ml measured after 12 to 28 days by Lowenstein-Jensen method relative to control; format: functional; details: time 12-28 day
[26] = test system: Mycobacterium tuberculosis; assay: Antimycobacterial activity against Mycobacterium tuberculosis H37Rv by Lowenstein-Jensen method; format: functional

Work on Cc1ccc(N2C(=O)CSC23C(=O)Nc2ccc(C)cc23)cc1 (centres undefined) yielded an inhibition of growth at 12.5 µg/mL [1] of 90%.

Work on COc1ccc(C(=O)Nc2ccc(C(=O)NN3C(=O)CSC3c3ccc([N+](=O)[O-])o3)cc2)cc1 (centres undefined) yielded an inhibition of growth at 6.25 µg/mL [2] of 98%.

For O=C(NN1C(=O)CSC1c1ccccc1O)c1coc2ccc3ccccc3c12 (centres undefined), the MIC [3] was 50 µg/mL (≈ 124 µM).

In the case of Cc1nc(/N=C2\C(=O)Nc3ccccc32)sc1C(=O)NN1C(=O)CSC1c1ccc(Cl)cc1 (centres undefined), the MIC [4] is reported as 0.78 µM (≈ 0.388 µg/mL).

Cc1nc2ccccc2c(=O)n1CCNC1=NC(=O)/C(=C/c2cccc(Cl)c2)S1 gave an inhibition at 6.25 µg/mL [5] of 99%.

In the case of O=C1C(CN2CCOCC2)SC(c2ccc(Cl)cc2)N1c1ccc(Cl)cc1 (centres undefined), the MIC [6] is reported as 25 µg/mL (≈ 59.1 µM).

For COc1cc(/C=C2\SC(=S)N(CCC(=O)NNC(=O)c3ccncc3)C2=O)cc(OC)c1OC, the IC50 [7] was 350 nM and the MIC [8] was 1.55 µM (≈ 0.779 µg/mL).

CCn1c(C(=O)NN2C(=O)CSC2c2ccc([N+](=O)[O-])cc2)cc(=O)c2cc(F)c(N3CCNCC3)cc21 (centres undefined) gave an MIC [9] of 16.3 µM (≈ 8.8 µg/mL).

Compound COc1ccc(C(CNC(=O)CNN2C(=O)CSC2c2ccc(O)c(OC)c2)C2(O)CCCCC2)cc1 (centres undefined) has an inhibition of growth at 16 µg/mL [10] of 99%.

O=C(CNNC(=O)c1ccncc1)COc1ccc(/C=C2\SC(=O)NC2=O)cc1 showed an MIC [11] of 50 µg/mL (≈ 121 µM).

With CCN1C(=O)/C(=C/c2ccc(OC)cc2)S/C1=N/NC(=O)c1ccncc1 the selectivity ratio [12] was 18.1, the CC50 at 72 h [13] was 36.9 µg/mL (≈ 96.4 µM) and the IC90 [14] was 2.95 µg/mL (≈ 7.72 µM).

For O=C(NN1C(=O)CSC1c1c[nH]c2ccccc12)c1ccncc1 (centres undefined), the Ki [15] was 641 nM and the zone of inhibition at 20 µg/mL [16] was 35 mm.

For O=C1CSC(c2c(-c3ccccc3)[nH]c3ccc(Cl)cc23)N1c1nc(-c2cc3cc(Br)ccc3oc2=O)cs1 (centres undefined), the inhibition of growth at 12.5 µg/mL [17] was 80%.

Compound Cc1ccc(N2C(=O)CSC23C(=O)N(CN2CCOCC2)c2ccc(C)cc23)cc1 (centres undefined) has an inhibition of growth at 12.5 µg/mL [1] of 90%.

In the case of O=C(O)CCCCCC1NC(=O)CS1 (centres undefined), the MIC [18] is reported as 1.56 µM (≈ 0.339 µg/mL), the MIC [19] is reported as 1.56 µM (≈ 0.339 µg/mL) and the MIC [20] is reported as 0.6 µM (≈ 0.13 µg/mL). For the same compound, the MIC [21] was 0.096 µM (≈ 0.0209 µg/mL).

N#Cc1ccc(C2SCC(=O)N2NC(=O)c2[nH]c3ccc(F)cc3c2-c2ccccc2)cc1 (centres undefined) gave an MIC [22] of 6.25 µg/mL (≈ 13.7 µM).

O=C(O)c1ccc(N2C(=O)CSC23C(=O)Nc2ccc(F)cc23)cc1O (centres undefined) gave an inhibition of growth at 12.5 µg/mL [1] of 98%.

In the case of O=C1/C(=C/c2ccc(F)cc2)SC(=S)N1Cc1nnc(-c2cccnc2SCc2ccccc2)o1, the inhibition of growth at 50 µg/mL [23] is reported as 99%.

O=C(NN1C(=O)CSC1c1ccc(O)cc1)c1coc2ccc3ccccc3c12 (centres undefined) showed an MIC [3] of 50 µg/mL (≈ 124 µM).

For O=C(NN1C(=O)CSC1c1cccc([N+](=O)[O-])c1)c1coc2ccc3ccccc3c12 (centres undefined), the MIC [3] was 50 µg/mL (≈ 115 µM).

Cc1nc(/N=C2\C(=O)Nc3ccccc32)sc1C(=O)NN1C(=O)CSC1c1ccccc1Cl (centres undefined) showed an MIC [4] of 0.78 µM (≈ 0.388 µg/mL).

For Cc1ccc(/C=C2\SC(NCCn3c(C)nc4ccccc4c3=O)=NC2=O)cc1, the inhibition at 6.25 µg/mL [5] was 99%.

For Cc1nc(-c2cnccn2)sc1C(=O)NN1C(=O)CSC1c1ccccc1 (centres undefined), the inhibition at 30 µg/mL [24] was 71%.

O=C1CSC(c2cc3ccccc3nc2Cl)N1c1ccc(F)cc1 (centres undefined) showed an inhibition at 12.5 µg/mL [25] of 99%.

Compound CN1C(=O)/C(=C/c2ccccc2F)S/C1=N/NC(=O)c1ccncc1 has a CC50 at 72 h [13] of 15.5 µg/mL (≈ 43.6 µM) and an IC90 [14] of 2.95 µg/mL (≈ 8.28 µM).

Work on COc1cc(C2SCC(=O)N2NC2=Nc3ccccc3Sc3ccccc32)cc(OC)c1OC (centres undefined) yielded an MIC [26] of 125 µg/mL (≈ 253 µM).
